For test [1], the target named is RAC-alpha serine/threonine-protein kinase (Homo sapiens) (UniProt P31749). Put plainly: Inhibition of human PKBa assessed as residual activity at 1 uM in presence of [33P]ATP by filter binding assay relative to control.
Test [2] concerns the target Aurora kinase B (Homo sapiens) (UniProt Q96GD4). Put plainly: Inhibition of human Aurora B assessed as residual activity at 1 uM in presence of [33P]ATP by filter binding assay relative to control.
For test [3], the target named is Homeodomain-interacting protein kinase 3 (Homo sapiens) (UniProt Q9H422). Put plainly: Inhibition of human HIPK3 assessed as residual activity at 1 uM in presence of 33P-ATP by filter-binding assay relative to control.
Test [4] addresses Inhibitor of nuclear factor kappa-B kinase subunit epsilon (Homo sapiens) (UniProt Q14164). Put plainly: Inhibition of human IKKe assessed as residual activity at 1 uM in presence of 33P-ATP by filter-binding assay relative to control.
Test [5] deals with Tyrosine-protein kinase Lck (Homo sapiens) (UniProt P06239). Put plainly: Inhibition of human Lck assessed as residual activity at 1 uM in presence of 33P-ATP by filter-binding assay relative to control.
Test [6] has as its target Eukaryotic translation initiation factor 2-alpha kinase 3 (Homo sapiens) (UniProt Q9NZJ5). Put plainly: Inhibition of human EIF2AK3 assessed as residual activity at 1 uM in presence of 33P-ATP by filter-binding assay relative to control.
The target in test [7] is Serine/threonine-protein kinase 26 (Homo sapiens) (UniProt Q9P289). Put plainly: Inhibition of human MST4 assessed as residual activity at 1 uM in presence of [33P]ATP by filter binding assay relative to control.
In test [8] the target is Serine/threonine-protein kinase D1 (Homo sapiens) (UniProt Q15139). Put plainly: Inhibition of human PKD1 assessed as residual activity at 1 uM in presence of [33P]ATP by filter binding assay relative to control.
Chain of Serine/threonine-protein kinase D1 (Homo sapiens) (Q15139 whole entry, canonical isoform): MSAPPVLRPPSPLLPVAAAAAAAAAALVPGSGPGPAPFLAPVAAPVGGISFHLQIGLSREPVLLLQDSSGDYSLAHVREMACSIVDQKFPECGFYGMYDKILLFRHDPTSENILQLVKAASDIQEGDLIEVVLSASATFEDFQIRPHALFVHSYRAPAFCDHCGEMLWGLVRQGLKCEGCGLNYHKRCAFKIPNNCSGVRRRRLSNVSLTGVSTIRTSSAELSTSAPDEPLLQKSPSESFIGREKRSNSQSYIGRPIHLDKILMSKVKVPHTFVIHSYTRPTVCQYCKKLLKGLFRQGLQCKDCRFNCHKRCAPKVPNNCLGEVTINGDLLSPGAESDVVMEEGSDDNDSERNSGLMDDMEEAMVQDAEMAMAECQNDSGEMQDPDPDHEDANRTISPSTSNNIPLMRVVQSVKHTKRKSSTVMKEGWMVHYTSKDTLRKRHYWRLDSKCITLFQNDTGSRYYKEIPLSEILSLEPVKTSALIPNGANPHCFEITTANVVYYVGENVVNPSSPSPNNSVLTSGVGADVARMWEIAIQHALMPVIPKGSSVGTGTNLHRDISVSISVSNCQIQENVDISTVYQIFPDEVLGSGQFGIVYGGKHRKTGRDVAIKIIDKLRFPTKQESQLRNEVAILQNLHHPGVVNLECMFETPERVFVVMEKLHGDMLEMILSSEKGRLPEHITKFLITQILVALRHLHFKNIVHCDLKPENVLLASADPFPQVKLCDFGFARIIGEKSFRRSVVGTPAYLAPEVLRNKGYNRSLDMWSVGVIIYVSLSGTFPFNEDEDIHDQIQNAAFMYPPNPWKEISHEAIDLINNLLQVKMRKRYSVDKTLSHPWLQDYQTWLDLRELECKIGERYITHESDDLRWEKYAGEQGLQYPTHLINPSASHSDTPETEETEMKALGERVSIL
The target in test [9] is Casein kinase I isoform delta (Homo sapiens) (UniProt P48730). Put plainly: Inhibition of human CK1delta assessed as residual activity at 1 uM in presence of [33P]ATP by filter binding assay relative to control.
Chain of Casein kinase I isoform delta (Homo sapiens) (P48730 whole entry, looked up, canonical isoform): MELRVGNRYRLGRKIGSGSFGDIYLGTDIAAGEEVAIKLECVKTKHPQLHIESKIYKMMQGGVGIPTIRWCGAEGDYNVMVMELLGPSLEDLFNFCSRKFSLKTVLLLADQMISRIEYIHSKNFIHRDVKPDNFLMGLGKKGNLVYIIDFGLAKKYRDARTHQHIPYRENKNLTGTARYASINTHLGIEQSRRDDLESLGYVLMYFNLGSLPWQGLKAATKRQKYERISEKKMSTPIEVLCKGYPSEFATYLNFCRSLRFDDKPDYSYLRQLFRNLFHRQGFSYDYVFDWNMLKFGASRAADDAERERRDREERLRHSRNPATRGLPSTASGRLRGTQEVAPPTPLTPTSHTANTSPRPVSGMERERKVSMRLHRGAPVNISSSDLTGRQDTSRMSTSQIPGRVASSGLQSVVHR
The target in test [10] is CDK2/Cyclin A2 (Homo sapiens) (UniProt P24941+P20248). Put plainly: Inhibition of human CDK2/Cyclin A assessed as residual activity at 1 uM in presence of [33P]ATP by filter binding assay relative to control. The format is protein-complex assay.
Test [11] has as its target SRSF protein kinase 1 (Homo sapiens) (UniProt Q96SB4). Put plainly: Inhibition of human SRPK1 assessed as residual activity at 1 uM in presence of [33P]ATP by filter binding assay relative to control.
Test [12] has as its target Mitogen-activated protein kinase 14 (Homo sapiens) (UniProt Q16539). Put plainly: Inhibition of human p38a MAPK assessed as residual activity at 1 uM in presence of [33P]ATP by filter binding assay relative to control.
The target in test [13] is Serine/threonine-protein kinase ULK1 (Homo sapiens) (UniProt O75385). Put plainly: Inhibition of human ULK1 assessed as residual activity at 1 uM in presence of [33P]ATP by filter binding assay relative to control.
The target of test [14] is MAP kinase-activated protein kinase 5 (Homo sapiens) (UniProt Q8IW41). Put plainly: Inhibition of human PRAK assessed as residual activity at 1 uM in presence of [33P]ATP by filter binding assay relative to control.
The target in test [15] is Serine/threonine-protein kinase Chk2 (Homo sapiens) (UniProt O96017). Put plainly: Inhibition of human CHK2 assessed as residual activity at 1 uM in presence of [33P]ATP by filter binding assay relative to control.
Test [16] has as its target Serine/threonine-protein kinase PINK1, mitochondrial (Homo sapiens) (UniProt Q9BXM7). Put plainly: Inhibition of human PINK assessed as residual activity at 1 uM in presence of [33P]ATP by filter binding assay relative to control.
For test [17], the target named is Dual specificity testis-specific protein kinase 1 (Homo sapiens) (UniProt Q15569). Put plainly: Inhibition of human TESK1 assessed as residual activity at 1 uM in presence of [33P]ATP by filter binding assay relative to control.
The target of test [18] is Serine/threonine-protein kinase WNK1 (Homo sapiens) (UniProt Q9H4A3). Put plainly: Inhibition of human WNK1 assessed as residual activity at 1 uM in presence of [33P]ATP by filter binding assay relative to control.
Test [19] deals with Ephrin type-B receptor 2 (Homo sapiens) (UniProt P29323). Put plainly: Inhibition of human EPH-B2 assessed as residual activity at 1 uM in presence of [33P]ATP by filter binding assay relative to control.
The target in test [20] is Interleukin-1 receptor-associated kinase 1 (Homo sapiens) (UniProt P51617). Put plainly: Inhibition of human IRAK1 assessed as residual activity at 1 uM in presence of [33P]ATP by filter binding assay relative to control.
For test [21], the target named is Tau-tubulin kinase 1 (Homo sapiens) (UniProt Q5TCY1). Put plainly: Inhibition of human TTBK1 assessed as residual activity at 1 uM in presence of [33P]ATP by filter binding assay relative to control.
The target of test [22] is Misshapen-like kinase 1 (Homo sapiens) (UniProt Q8N4C8). Put plainly: Inhibition of human MINK1 assessed as residual activity at 1 uM in presence of [33P]ATP by filter binding assay relative to control.
Chain of Misshapen-like kinase 1 (Homo sapiens) (Q8N4C8 whole entry, looked up): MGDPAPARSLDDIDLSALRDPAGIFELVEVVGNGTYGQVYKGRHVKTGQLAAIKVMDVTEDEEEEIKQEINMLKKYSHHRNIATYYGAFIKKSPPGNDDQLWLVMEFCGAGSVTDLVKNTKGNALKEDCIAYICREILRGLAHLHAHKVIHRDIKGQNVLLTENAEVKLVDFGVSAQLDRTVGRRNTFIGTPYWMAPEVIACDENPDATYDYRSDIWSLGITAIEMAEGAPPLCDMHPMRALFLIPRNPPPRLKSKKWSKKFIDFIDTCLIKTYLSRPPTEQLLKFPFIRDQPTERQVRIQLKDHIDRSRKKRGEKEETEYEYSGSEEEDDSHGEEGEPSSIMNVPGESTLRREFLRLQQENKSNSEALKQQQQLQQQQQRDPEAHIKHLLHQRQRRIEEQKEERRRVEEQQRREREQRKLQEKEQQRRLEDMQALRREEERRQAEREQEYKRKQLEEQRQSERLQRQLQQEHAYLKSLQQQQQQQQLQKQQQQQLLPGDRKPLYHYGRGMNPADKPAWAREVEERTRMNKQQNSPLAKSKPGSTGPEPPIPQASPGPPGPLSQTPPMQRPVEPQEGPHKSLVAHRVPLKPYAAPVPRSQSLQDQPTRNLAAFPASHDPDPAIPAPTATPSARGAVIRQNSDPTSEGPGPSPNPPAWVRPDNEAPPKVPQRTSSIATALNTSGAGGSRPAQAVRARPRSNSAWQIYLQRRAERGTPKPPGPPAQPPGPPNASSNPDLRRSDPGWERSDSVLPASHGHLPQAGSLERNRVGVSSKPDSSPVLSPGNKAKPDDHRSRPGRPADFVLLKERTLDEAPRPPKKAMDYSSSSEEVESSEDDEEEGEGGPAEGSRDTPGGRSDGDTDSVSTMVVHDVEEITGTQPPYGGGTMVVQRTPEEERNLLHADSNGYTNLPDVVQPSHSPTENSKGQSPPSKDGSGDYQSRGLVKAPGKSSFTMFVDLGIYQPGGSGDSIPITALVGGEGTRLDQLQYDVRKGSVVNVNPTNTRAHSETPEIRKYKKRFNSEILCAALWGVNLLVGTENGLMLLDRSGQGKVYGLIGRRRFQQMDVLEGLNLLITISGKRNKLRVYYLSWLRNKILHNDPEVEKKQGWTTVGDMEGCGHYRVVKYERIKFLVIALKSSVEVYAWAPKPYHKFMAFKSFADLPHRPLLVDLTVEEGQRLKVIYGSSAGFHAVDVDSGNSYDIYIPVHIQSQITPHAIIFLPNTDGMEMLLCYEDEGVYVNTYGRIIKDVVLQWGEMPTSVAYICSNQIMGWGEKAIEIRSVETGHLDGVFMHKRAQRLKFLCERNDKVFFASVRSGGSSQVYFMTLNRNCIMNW
In test [23] the target is Tyrosine-protein kinase ZAP-70 (Homo sapiens) (UniProt P43403). Put plainly: Inhibition of human ZAP70 assessed as residual activity at 1 uM in presence of [33P]ATP by filter binding assay relative to control.
Chain of Tyrosine-protein kinase ZAP-70 (Homo sapiens) (P43403 whole entry): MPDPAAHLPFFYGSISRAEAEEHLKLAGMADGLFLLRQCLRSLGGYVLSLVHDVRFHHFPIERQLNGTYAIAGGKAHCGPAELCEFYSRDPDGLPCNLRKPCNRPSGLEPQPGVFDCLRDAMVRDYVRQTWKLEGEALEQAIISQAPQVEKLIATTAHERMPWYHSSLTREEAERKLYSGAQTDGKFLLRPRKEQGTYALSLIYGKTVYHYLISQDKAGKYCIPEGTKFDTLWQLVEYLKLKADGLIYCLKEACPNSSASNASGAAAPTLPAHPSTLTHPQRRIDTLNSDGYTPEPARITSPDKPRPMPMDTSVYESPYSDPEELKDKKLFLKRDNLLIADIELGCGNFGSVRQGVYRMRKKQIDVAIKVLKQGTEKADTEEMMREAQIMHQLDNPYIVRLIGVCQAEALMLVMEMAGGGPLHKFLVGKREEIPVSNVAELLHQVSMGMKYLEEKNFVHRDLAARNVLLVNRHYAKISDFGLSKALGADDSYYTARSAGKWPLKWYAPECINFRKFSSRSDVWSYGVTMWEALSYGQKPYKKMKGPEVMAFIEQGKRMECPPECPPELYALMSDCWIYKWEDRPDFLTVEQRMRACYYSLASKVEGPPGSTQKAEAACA

This is an account of results in ChEMBL document CHEMBL4049403, “Oligo-aspartic acid conjugates with benzo[c][2,6]naphthyridine-8-carboxylic acid scaffold as picomolar inhibitors of CK2” (Bioorg Med Chem, 2017).

SMILES strings stand for the structures. Where a SMILES comes first, the peptide text is derived from it. The star is where a group is joined. X1 = O=C(O)c1ccc2c(c1)nc(OCCCCCCCCC(=O)*)c1ccncc12

Chain of Aurora kinase B (Homo sapiens) (Q96GD4 whole entry): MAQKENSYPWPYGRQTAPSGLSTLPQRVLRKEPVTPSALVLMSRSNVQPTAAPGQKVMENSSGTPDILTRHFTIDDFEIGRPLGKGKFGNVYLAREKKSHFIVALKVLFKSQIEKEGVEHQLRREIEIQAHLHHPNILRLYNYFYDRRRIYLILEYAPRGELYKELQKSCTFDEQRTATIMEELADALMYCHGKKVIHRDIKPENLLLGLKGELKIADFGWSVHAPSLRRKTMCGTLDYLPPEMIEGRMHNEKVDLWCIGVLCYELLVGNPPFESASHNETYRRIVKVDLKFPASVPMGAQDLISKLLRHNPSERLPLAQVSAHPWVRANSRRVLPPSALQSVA
Chain of Eukaryotic translation initiation factor 2-alpha kinase 3 (Homo sapiens) (Q9NZJ5 whole entry): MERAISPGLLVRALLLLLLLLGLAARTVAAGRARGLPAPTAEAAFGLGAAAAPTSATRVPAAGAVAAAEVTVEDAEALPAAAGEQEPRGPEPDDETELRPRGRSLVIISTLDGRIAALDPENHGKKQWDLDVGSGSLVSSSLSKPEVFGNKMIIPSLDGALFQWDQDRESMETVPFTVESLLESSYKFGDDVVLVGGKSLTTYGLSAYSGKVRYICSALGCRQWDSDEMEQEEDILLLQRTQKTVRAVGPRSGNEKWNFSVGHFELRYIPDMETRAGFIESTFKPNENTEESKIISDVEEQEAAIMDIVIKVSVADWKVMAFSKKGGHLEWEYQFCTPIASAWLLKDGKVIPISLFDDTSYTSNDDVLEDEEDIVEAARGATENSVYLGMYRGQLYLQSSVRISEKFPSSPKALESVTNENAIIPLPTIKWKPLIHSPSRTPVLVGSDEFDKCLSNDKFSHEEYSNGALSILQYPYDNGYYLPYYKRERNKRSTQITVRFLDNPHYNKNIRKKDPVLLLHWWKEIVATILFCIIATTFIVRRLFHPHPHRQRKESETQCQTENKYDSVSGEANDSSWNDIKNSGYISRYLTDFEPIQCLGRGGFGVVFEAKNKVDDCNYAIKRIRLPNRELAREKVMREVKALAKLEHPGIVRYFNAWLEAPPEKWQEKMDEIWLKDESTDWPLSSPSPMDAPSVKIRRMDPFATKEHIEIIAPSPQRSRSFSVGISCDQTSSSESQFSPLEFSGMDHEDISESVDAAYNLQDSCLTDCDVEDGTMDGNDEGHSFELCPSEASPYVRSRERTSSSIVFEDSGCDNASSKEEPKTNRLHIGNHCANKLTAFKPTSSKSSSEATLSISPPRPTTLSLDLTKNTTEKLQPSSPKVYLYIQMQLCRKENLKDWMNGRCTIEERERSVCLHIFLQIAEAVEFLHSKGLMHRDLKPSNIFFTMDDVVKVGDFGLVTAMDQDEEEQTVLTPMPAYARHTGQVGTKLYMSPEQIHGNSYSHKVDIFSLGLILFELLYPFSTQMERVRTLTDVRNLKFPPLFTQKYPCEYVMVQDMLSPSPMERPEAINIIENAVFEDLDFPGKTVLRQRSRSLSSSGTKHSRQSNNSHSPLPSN

Take `NCCCC[C@H](NC(=O)[C@H](CC(=O)O)NC(=O)[C@H](CC(=O)O)NC(=O)[C@H](CC(=O)O)NC(=O)[C@H](CC(=O)O)NC(=O)[C@H](CC(=O)O)NC(=O)[C@H](CC(=O)O)NC(=O)CCCCCCCCOc1nc2cc(C(=O)O)ccc2c2cnccc12)C(=O)O` (X1-DDDDDDK-OH): the Activity in test [1] is 89%; in test [2], 86%; in test [3], 8%; in test [4], 13%; in test [5] it was 39%; in [6] it was 47%. In addition, the Activity in [7] turned out to be 67%; in [8], 79%; in test [9] it was 82%; in [10], 82%; in test [11], 86%; in test [12], 89%. Also, the Activity in test [13] stood at 90%; in test [14], 92%; in test [15], 92%; in test [16] it was 93%; in test [17] it was 94%; in test [18], 96%. In addition, the Activity was found to be 96% in test [19]; 97% in [20]; 97% in [21]; 100% in test [22]; 103% in [23].
